Laboratory results: patent publication US20260240877A1, “INOSITOL PHOSPHATE COMPOUNDS FOR USE IN INCREASING TISSULAR PERFUSION” (SANIFIT THERAPEUTICS, S.A., priority 2019, published 2026)

Legend:
[1] = tested on: adenine-induced uremic Sprague Dawley (SD) rats; assay: Limb blood perfusion by laser doppler perfusion imaging, adenine-induced uremic rat model; assay type: in vivo; conditions: Example 6; SNF472 30, 45 mg/kg s.c. or 400 mg/4 weeks Alzet pump; cilostazol 45 mg/kg oral; D1 to D21
Experimental: (§1) Position limb blood perfusion and ischemia status (i.e., blood perfusion including, perfusion unit, perfusion difference and perfusion ratio) is evaluated by laser doppler perfusion imaging using a PeriCam PSI NR imager (Perimed AB, Järfä11a, SE). Subjects are anesthetized using 3% isoflurane delivered in 100% oxygen at a flow rate at 1 L/min before measuring. The perfusion difference and perfusion ratio are calculated by comparing the baseline and any indicated interim or final readings for each group.
Uremia and limb ischemia were induced in groups 2-6 by a daily dose of adenine (500 mg/kg, suspended in 1% carboxymethyl cellulose, administered orally) for the first 10 days, and then with a dose of α-calcidol (100 ng/kg in olive oil, administered orally) three times per week from D11 to D19, to accelerate and homogenize the development of cardiovascular calcification and ischemia.
Animals in group 6 were administered orally 45 mg/kg cilostazol (C20H27N5O2, free base 369.46 g/mol; lot no. LRAB9590, Sigma-Aldrich Corp., St. Louis, MO, US) in a 5% CMC sodium salt in water solution (5 mL/kg) daily from D1 to D21.
Limb ischemia status was evaluated during treatment (i.e., DO, D10 and D17 and D21) in all rats by laser doppler perfusion imaging. The perfusion difference and perfusion ratio were calculated by comparing the baseline and of the D10, D17 and D21 readings for each group.

[2] = tested on: Sprague Dawley (SD) rats with vitamin D3-induced limb ischemia; assay: Limb blood perfusion by laser doppler perfusion imaging, prevention of vitamin D3-induced limb ischemia; assay type: in vivo, rat
Experimental: as §1, with “group. […]” for “group.”
Limb ischemia status was evaluated at days DO (baseline), D6 and D12 in all rats by laser doppler perfusion imaging. The perfusion difference and perfusion ratio were calculated by comparing the DO baseline and either the D6 and D12 readings for each group. […]
Limb ischemia status was evaluated during treatment and after treatment was interrupted (i.e., DO, D6, D12, D18) in all rats by laser doppler perfusion imaging. The perfusion difference and perfusion ratio were calculated by comparing the baseline and either of the D6, D12, and D18 readings for each group. […]
Limb ischemia status was evaluated during the treatment period (i.e., DO, D6 and D12) by laser doppler perfusion imaging in all rats. The perfusion difference and perfusion ratio were calculated by comparing the baseline and either of the D6 and D12 readings for each group.

[3] = tested on: adenine-induced uremic Sprague Dawley (SD) rats; assay: Heart and aorta calcification (calcium content by ICP-OES), adenine-induced uremic rat model; assay type: in vivo; conditions: Example 6; SNF472 s.c. dosing or Alzet pump; cilostazol 45 mg/kg oral; D21
Experimental: Uremia and limb ischemia were induced in groups 2-6 by a daily dose of adenine (500 mg/kg, suspended in 1% carboxymethyl cellulose, administered orally) for the first 10 days, and then with a dose of α-calcidol (100 ng/kg in olive oil, administered orally) three times per week from D11 to D19, to accelerate and homogenize the development of cardiovascular calcification and ischemia. Subjects were anesthetized and their blood was obtained in D21. The subjects were sacrificed after exsanguination. Then, their necropsies were performed, and their heart and aorta arteries were collected. The tissues were lyophilized for 24 h and weighed. The lyophilized tissues were then digested using a 1:1 HNO3: HClO4 mixture in a dry bath incubator for 2-4 h at 180° C. The digested tissues were subsequently diluted using ultra-pure Milli-Q water (MilliporeSigma (Merck KGaA), Burlington, MA, US) to a final volume of 10 mL. The calcium content in the tissue samples was quantified via ICP-OES.

[4] = tested on: Sprague Dawley (SD) rats with vitamin D3-induced limb ischemia; assay: Walking ability (MWD, MWT) by treadmill running test, prevention of vitamin D3-induced limb ischemia; assay type: in vivo, rat
Experimental: (§2) Quantification of walking ability (maximal waling time (MWT) and maximal walking distance (MWD)) are measured by a forced incremental treadmill running test. A two-lane rodent treadmill (LE8709TS; PanLab/Harvard Apparatus, Holliston, MA, US) is employed. The treadmill is maintained at a 15% inclination running at a speed of 15 m/min (25 cm/sec) during the first 5 min, then at 33 cm/see during the following 5 min, and finally, at a speed of 40 cm/see for a maximum of 30 additional minutes.
Subjects are exercised in the treadmill for acclimatization according to a set protocol prior to testing.
Subjects are kept running for up to 40 min or until exhausted (i.e., they remain on the shock grid for five continuous seconds) during the test. MWD and MWT are then calculated for each animal.
Maximal waling time (MWT) and maximal walking distance (MWD) were assessed in groups 1~4 by the treadmill running test (8 to10 animals per group and time point) in DO, D5, D10, and D17.
Subjects were acclimatized to the treadmill for two days before conducting the test. On the first day, subjects were exercised for 5 to 10 minutes with the treadmill speed ranging progressively from 15 m/min to 24 m/min. On the second day, the subjects were exercised initially at a speed of 15 m/min for the 5 minutes. Then, they were exercised at 19.8 m/min (33 cm/sec) for 5 additional minutes. Finally, the subjects were exercised at 24 m/min (40 cm/sec) for a maximum 30 additional minutes. Preoperative walking time and distance recordings were obtained.
Limb function (MWT and MWD) was assessed in groups 1, 2, and 3 using the treadmill running test 15 min after the corresponding daily administration. Limb function in groups 4 was assessed from 3 to 4 hours after treatment.
(§3) The subjects were kept running for 40 minutes or until exhausted (i.e., they remain on the shock grid for five continuous seconds). MWD and MWT was then calculated for each animal.
Maximal walking time (MWT) and maximal walking distance (MWD) were assessed in groups 1-8 by the treadmill running test (8 to12 animals per group and time point) in DO, D5 and D10.
Limb function (MWT and MWD) was assessed in groups 1, 2, 3, 4, 5, 6 and 7 using the treadmill running test 15 min after the corresponding daily administration. Limb function in group 8 was assessed from 3 to 4 hours after treatment.

[5] = in vivo; cited from earlier work
[6] = tested on: Sprague Dawley (SD) rats with vitamin D3-induced limb ischemia; assay: Limb blood perfusion by laser doppler perfusion imaging, treatment after inception of limb ischemia; assay type: in vivo, rat; conditions: Example 3; 40 mg/kg daily D5 to D13
Experimental: Position limb blood perfusion and ischemia status (i.e., blood perfusion including, perfusion unit, perfusion difference and perfusion ratio) is evaluated by laser doppler perfusion imaging using a PeriCam PSI NR imager (Perimed AB, Järfä11a, SE). Subjects are anesthetized using 3% isoflurane delivered in 100% oxygen at a flow rate at 1 L/min before measuring. The perfusion difference and perfusion ratio are calculated by comparing the baseline and any indicated interim or final readings for each group. […] Limb ischemia was induced in the subjects of groups 2-5 by subcutaneous administration of 120,000 IU/kg vitamin D3 (cholecalciferol, Duphafral D3 1000; Zoetis Inc., Parsippany, NJ, US) in physiological saline solution (2 mL/kg) every day during D1 to D3. The group 1 subjects were administered physiological saline solution (2 mL/kg) subcutaneously every day from D1 to D3 with no vitamin D3. Subjects in groups 3a placebo were administered 2 mL/kg of physiological saline solution daily from D5 to D13 via subcutaneous route. Subjects in group 3b placebo were administered orally 5 mL/kg of a 5% CMC sodium salt in water solution daily from D5 to D13. […] The perfusion difference and perfusion ratio were calculated by comparing the baseline and either D5 and D13 readings for each group.

[7] = tested on: Sprague Dawley (SD) rats with vitamin D3-induced limb ischemia; assay: Walking ability by treadmill running test, treatment after inception of limb ischemia; assay type: in vivo, rat; conditions: Example 3; 40 mg/kg/day, treatment started 5 days after ischemia induction, D11
Experimental: as §2
Maximal walking time (MWT) and maximal walking distance (MWD) were assessed in all groups at DO and in groups 1, 3a, 3b, 4, and 5 at D6 and D11 by the treadmill running test (8 to 12 animals per group and time point). Subjects were acclimatized to the treadmill for two days before conducting the test. On the first day, subjects were exercised for 5 to 10 minutes with the treadmill speed ranging progressively from 15 m/min to 24 m/min. […]
Limb function (MWT and MWD) was assessed in groups 1, 3a, 3b, and 4 using the treadmill running test 15 min after the corresponding daily administration. Limb function in groups 5 was assessed from 3 to 4 hours after treatment.
as §3

[8] = tested on: Sprague Dawley (SD) rats treated with vitamin D3; assay: Tissue calcification (calcium content by ICP-OES), VitD rat model, prevention; assay type: in vivo
Description: Subjects are anesthetized by isoflurane inhalation. Blood is obtained by exsanguination through cardiac puncture. The subjects are then sacrificed and their tissues (e.g., right and left femoral arteries, aorta) are collected. The blood and tissues are processed and analyzed for determining their calcium contents. Calcium content in tissue sample is quantified via inductively coupled plasma optical emission spectrometry (ICP-OES) using an Optima 7300 DV ICP-OES System spectrometer (PerkinElmer, Inc., Waltham, MA, US) according to the manufacturer's instructions. […] The subjects from groups 1, 2, 3 and 5 were sacrificed after exsanguination. Then, their necropsies were performed, and their aortas were collected. The tissues were lyophilized for 24 h and weighed. The lyophilized tissues were then digested using a 1:1 HNO3: HClO4 mixture in a dry bath incubator for 2-4 h at 180° C. The digested tissues were subsequently diluted using ultra-pure Milli-Q water (MilliporeSigma (Merck KGaA), Burlington, MA, US) to a final volume of 10 mL. The calcium content in the aorta sample was quantified via ICP-OES. Subjects were anesthetized and their blood was obtained in D24. The subjects were sacrificed after exsanguination. Then, their necropsies were performed, and their aortas were collected. The tissues were lyophilized for 24 h and weighed. The lyophilized tissues were then digested using a 1:1 HNO3: HClO4 mixture in a dry bath incubator for 2-4 h at 180° C. The digested tissues were subsequently diluted using ultra-pure Milli-Q water (MilliporeSigma (Merck KGaA), Burlington, MA, US) to a final volume of 10 mL. The calcium content in the tissue samples was quantified via ICP-OES. Subjects were anesthetized and their blood was obtained in D12. The subjects were sacrificed after exsanguination. Then, their necropsies were performed, and their heart and aorta arteries were collected. The tissues were lyophilized for 24 h and weighed. […] The calcium content in the tissue samples was quantified via ICP-OES.

[9] = tested on: people with symptomatic PAD; conditions: recent studies in PAD patients; cited from earlier work

Compound | rat limb ischemia in uremic rats (blood perfusion) [1] | rat limb ischemia (blood perfusion) ([2]; Example 2, 20 mg/kg daily D1 to D12 (SNF472 s.c., cilostazol oral)) | rat limb ischemia (blood perfusion) ([2]; Example 5, SNF472 1, 7.5, 15, 30, 45 mg/kg s.c., cilostazol 45 mg/kg oral, daily D1 to D12) | heart and aorta arteries calcification in uremic rats [3] | improvement of Maximal Walking Distance (MWD) compared to vehicle ([4]; Example 2, 20 mg/kg daily, D10) | improvement of Maximal Walking Time (MWT) compared to vehicle ([4]; Example 2, 20 mg/kg daily, D10) | effect on walking ability after interrupting treatment ([4]; Example 2, D17, 5 days after interrupting treatment) | walking ability compared to vehicle ([4]; Example 5, SNF472 1-45 mg/kg s.c., cilostazol 45 mg/kg oral, daily D1 to D12) | side effects [5] | limbs blood perfusion in D13 compared to D5 before treatment [6] | improvement of walking ability (MWD) compared to vehicle [7] | inhibition of aorta calcification compared to placebo ([8]; Example 1, 20 mg/kg daily, D12) | inhibition of aorta calcification compared to placebo ([8]; Example 2, 20 mg/kg daily D1 to D12, D24 (12 days after interruption of treatment)) | heart and aorta arteries calcification ([8]; Example 5, SNF472 1-45 mg/kg s.c., cilostazol 45 mg/kg oral, D12) | intermittent claudication symptoms or maximal walking distance versus placebo [9]
O=C1CCc2cc(OCCCCc3nnnn3C3CCCCC3)ccc2N1 [Cilostazol, 6-[4-(1-cyclohexyl-1H-tetrazol-5yl)butoxy]-3,4-dihydro-2 (1H)-quinolinone] | not effective | not effective | not effective | not active against calcification | +54% | +46% | lost its beneficial effects | improved walking ability | headache, diarrhea, palpitations, and lightheadedness | No improvement or ischemia rescue | not effective | not active against calcification | not active against calcification | not active against calcification | –
CC(=O)CCCCn1c(=O)c2c(ncn2C)n(C)c1=O [pentoxifylline] | – | – | – | – | – | – | – | – | – | – | – | – | – | – | not significantly improved
